Source: US20130150377A1, “Tetrahydropyridinyl and Dihydropyrrolyl Compounds and the Use Thereof” (SHIONOGI & CO., LTD., priority 2008, published 2013)
Counter-ions that a name gives are not always drawn.

Tests used:
[1] = target: T1, N-type calcium channel (NTCC) (Homo sapiens, UniProt Q00975); assay: FLIPR calcium mobilization assay for N-type calcium channel (differentiated IMR32 cells); assay type: cell-based; conditions: N-type calcium channel blockers, calcium mobilization in vitro assay
T1 construct: endogenous in cells; host or cells: differentiated IMR32 cells (ATCC)
Method: Cell maintenance and differentiation. Unless noted otherwise, cell culture reagents were purchased from Mediatech of Herndon, Md. IMR32 cells (American Type Culture Collection, ATCC, Manassas, Va.) were routinely cultured in growth medium consisting of minimum essential medium containing 10% fetal bovine serum (FBS, Hyclone, Logan, Utah), 100 U/mL penicillin, 100 μg/mL streptomycin, 2 mM L-glutamine, 1 mM sodium pyruvate, and 1×MEM non-essential amino acids. 80-90% confluent flasks of cells were differentiated using the following differentiation medium: Growth medium plus 1 mM dibutyryl cyclic AMP (Sigma, St. Louis, Mo.), and 2.5 μM bromodeoxyuridine (Sigma). Cells were differentiated for 8 days by replacing differentiation medium every 2-3 days.
FLIPR Calcium Mobilization Assay for N-type Calcium Channel.
One day prior to performing this assay, differentiated IMR32 cells were treated with 1× CellStripper, and seeded on poly-D-lysine-coated 96-well clear-bottom black plates (Becton Dickinson, Franklin Lakes, N.J.) at 200,000 cells/well. On the day of the assay, the cell plates were washed with IMR32 buffer (127 mM NaCl, 1 mM KCl, 2 mM MgCl2, 700 μM NaH2PO4, 5 mM CaCl2, 5 mM NaHCO3, 8 mM HEPES, 10 mM glucose, pH 7.4), then pre-stimulated with KCl and loaded as follows: […] of IMR32 buffer, 0.05 mL of each compound tested diluted in IMR32 buffer containing 20 μM nitrendipine (Sigma), and 0.1 mL KCl dissolved in IMR32 buffer, plus Fluo-4 were added (3 μM final concentration, Molecular Probes, Eugene, Oreg.). Final test compound concentrations ranged from about 846 pM to about 17 μM, final nitrendipine concentration was 5 μM, and final KCl concentration was 90 mM. After 1 hour, the cells were washed twice with 0.05 mL of each compound tested in nitrendipine-containing IMR32 buffer (no KCl or Fluo-4), and then replaced with 0.1 mL of each compound tested in nitrendipine-containing IMR32 buffer. Plates were then transferred to a Fluorimetric Imaging Plate Reader (FLIPR^96, Molecular Devices, Inc., Sunnyvale, Calif.) for assay. The FLIPR measured basal Fluo-4 fluorescence for 315 seconds (i.e., 5 minutes and 15 seconds), then added 0.1 mL KCl agonist dissolved in IMR32 buffer and measured fluorescence for another 45 seconds. Final test compound concentrations on the cells after FLIPR read ranged from about 846 pM to about 17 μM, final nitrendipine concentration was 5 μM, and final KCl concentration was 90 mM. Data were collected over the entire time course and analyzed using Excel, Graph Pad Prism (version 3.02, Graph Pad, San Diego, Calif.), or an in-house non-linear regression analysis software.

[2] = target: T2, L-type calcium channel (LTCC) subunits (α1c, α2δ, and β1) (Rattus norvegicus, UniProt P22002); assay: FLIPR calcium mobilization assay for L-type calcium channel (HEK293 cells expressing recombinant LTCC subunits); assay type: cell-based; conditions: calcium mobilization assay for L-type calcium channel blocking activity
T2 construct: expressed in transfected cells; pcDNA6.2DEST α1c, pcDNA3.2DEST β1, pcDNA3.1-Zeo α2δ)
Method: Recombinant human embryonal kidney cells (HEK293, ATCC) stably transfected with either N-type calcium channel (NTCC) subunits (α1b, α28, and β3) or L-type calcium channel (LTCC) subunits (α1c, α2δ, and […]) were routinely cultured in growth medium consisting of Dulbecco's Modified Eagles Medium containing 10% FBS, 100 U/mL penicillin, 100 μg/mL streptomycin, 4 mM L-glutamine, 500 μg/mL geneticin (G418), 20 μg/mL Blasticidin S (InVivogen, San Diego, Calif.) and 500 μg/mL zeocin (InVivogen).
FLIPR Calcium Mobilization Assay for L-type Calcium Channel.
One day prior to performing this assay, HEK293 cells stably expressing recombinant rat L-type calcium channel (LTCC) subunits (α1c, α2δ, and β1) were trypsinized, then seeded on poly-D-lysine-coated 96-well clear-bottom black plates (Becton Dickinson, Franklin Lakes, N.J.) at 75,000 cells/well. […] The FLIPR measured basal Fluo-4 fluorescence for 15 seconds, then added 0.05 mL of each compound tested diluted in LTCC assay buffer at final concentrations ranging from about 846 pM to about 17 μM. Fluo-4 fluorescence was then measured for 5 minutes. 0.1 mL KCl agonist dissolved in LTCC assay buffer was, then added to the cells to produce a final concentration of 90 mM KCl, and fluorescence was measured for another 45 seconds. […]

T1 sequence (Q00975 whole entry): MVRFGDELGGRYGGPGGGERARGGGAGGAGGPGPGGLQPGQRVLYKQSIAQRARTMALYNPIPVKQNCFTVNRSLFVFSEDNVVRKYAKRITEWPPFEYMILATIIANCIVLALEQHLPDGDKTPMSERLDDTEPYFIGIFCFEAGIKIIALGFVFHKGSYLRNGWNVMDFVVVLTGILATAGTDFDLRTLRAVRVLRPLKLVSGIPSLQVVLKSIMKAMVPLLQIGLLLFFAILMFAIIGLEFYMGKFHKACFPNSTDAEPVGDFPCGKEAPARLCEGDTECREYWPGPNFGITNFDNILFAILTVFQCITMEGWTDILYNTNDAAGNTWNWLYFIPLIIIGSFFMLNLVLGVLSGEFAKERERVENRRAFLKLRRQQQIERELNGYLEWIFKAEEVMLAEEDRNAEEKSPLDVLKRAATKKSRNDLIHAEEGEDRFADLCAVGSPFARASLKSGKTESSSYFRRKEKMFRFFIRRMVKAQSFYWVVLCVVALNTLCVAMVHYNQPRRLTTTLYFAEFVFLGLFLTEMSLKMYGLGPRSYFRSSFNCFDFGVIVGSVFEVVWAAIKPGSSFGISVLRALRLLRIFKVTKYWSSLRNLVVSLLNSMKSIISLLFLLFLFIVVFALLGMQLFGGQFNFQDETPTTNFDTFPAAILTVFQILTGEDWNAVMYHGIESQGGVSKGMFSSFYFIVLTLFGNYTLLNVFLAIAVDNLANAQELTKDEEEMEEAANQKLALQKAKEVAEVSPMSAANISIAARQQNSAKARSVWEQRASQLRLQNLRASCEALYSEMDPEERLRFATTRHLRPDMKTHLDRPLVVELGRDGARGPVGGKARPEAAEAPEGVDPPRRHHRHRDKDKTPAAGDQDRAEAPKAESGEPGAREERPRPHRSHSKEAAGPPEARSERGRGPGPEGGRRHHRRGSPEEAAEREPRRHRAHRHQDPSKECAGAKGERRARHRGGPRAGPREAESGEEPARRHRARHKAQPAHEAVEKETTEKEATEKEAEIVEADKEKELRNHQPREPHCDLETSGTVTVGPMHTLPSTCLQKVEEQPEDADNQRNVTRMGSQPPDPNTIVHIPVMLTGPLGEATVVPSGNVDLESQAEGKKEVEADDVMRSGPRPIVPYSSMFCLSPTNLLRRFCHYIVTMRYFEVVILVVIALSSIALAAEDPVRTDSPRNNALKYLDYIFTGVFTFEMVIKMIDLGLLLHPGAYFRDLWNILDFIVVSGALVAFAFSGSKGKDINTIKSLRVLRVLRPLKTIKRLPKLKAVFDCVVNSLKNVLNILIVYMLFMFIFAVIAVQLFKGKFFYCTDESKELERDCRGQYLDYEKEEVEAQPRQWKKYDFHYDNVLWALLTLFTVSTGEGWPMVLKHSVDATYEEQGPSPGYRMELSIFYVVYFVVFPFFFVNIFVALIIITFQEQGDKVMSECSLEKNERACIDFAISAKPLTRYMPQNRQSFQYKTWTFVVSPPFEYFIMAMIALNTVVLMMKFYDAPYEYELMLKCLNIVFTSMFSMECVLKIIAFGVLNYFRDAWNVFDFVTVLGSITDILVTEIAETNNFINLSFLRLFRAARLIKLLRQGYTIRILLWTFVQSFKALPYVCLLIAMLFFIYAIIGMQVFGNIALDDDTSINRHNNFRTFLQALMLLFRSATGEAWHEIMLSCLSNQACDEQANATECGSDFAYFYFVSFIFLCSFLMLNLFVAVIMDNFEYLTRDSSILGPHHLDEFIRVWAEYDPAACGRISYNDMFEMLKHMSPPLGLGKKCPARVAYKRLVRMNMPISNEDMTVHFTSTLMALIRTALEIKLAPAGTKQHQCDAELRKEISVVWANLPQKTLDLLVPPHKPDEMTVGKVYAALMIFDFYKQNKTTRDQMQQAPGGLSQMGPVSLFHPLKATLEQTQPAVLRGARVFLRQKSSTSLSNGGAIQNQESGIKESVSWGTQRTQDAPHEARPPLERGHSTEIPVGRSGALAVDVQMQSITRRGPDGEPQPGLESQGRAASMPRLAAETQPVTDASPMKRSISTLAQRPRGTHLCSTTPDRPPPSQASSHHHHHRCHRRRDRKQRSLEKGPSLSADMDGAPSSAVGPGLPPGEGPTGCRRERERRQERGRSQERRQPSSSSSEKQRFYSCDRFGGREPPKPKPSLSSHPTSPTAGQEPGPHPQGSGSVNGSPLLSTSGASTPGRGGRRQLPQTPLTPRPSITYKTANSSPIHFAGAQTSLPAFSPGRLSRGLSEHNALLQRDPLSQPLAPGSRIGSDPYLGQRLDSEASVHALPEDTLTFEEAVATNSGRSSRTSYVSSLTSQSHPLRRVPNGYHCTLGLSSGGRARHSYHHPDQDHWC
T1 sequence (P54289 25-956 partner limits assumed): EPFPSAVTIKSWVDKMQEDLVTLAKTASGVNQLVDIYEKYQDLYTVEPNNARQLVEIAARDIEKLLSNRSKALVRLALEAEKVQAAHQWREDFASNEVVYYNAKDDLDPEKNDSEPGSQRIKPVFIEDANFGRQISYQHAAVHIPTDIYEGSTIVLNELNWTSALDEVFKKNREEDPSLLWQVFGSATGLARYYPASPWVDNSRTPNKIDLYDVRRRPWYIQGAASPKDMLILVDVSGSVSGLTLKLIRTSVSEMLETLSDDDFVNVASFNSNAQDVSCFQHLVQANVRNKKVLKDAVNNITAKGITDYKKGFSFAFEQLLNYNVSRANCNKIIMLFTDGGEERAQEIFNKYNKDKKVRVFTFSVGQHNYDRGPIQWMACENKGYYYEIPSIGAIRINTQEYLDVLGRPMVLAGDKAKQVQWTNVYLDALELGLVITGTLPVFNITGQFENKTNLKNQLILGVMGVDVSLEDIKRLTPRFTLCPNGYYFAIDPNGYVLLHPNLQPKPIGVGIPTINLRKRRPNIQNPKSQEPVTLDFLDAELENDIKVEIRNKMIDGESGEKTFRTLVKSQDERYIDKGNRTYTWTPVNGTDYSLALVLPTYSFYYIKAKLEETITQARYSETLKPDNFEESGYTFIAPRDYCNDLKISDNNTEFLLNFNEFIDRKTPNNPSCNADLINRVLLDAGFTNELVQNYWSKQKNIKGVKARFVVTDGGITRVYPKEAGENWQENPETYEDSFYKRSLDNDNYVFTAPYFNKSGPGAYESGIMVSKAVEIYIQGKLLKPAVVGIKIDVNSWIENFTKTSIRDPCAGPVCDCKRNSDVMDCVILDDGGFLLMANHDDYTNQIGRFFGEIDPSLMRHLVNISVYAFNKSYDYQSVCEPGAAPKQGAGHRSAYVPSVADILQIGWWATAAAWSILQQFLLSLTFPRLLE
T1 sequence (P54289 957-1103 partner limits assumed): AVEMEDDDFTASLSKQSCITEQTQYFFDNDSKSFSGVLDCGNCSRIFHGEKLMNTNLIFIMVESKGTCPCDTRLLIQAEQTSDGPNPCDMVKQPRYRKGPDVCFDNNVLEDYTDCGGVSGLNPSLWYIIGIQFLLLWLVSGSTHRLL
T1 sequence (P54284 whole entry partner): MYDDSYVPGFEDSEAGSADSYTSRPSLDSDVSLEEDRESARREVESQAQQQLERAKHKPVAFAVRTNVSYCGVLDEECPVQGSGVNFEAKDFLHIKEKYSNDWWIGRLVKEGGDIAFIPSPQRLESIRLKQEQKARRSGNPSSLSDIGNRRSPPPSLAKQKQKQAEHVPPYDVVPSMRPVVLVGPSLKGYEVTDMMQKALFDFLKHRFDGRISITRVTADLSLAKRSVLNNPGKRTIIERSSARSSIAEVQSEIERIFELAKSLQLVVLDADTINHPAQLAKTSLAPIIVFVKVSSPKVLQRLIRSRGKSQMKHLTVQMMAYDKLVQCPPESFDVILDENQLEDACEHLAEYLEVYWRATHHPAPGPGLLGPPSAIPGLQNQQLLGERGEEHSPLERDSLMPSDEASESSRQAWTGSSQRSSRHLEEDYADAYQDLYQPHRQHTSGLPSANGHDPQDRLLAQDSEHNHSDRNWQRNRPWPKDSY

| IC50 [1] [nM] | SMILES | IC50 [2] [nM] |
| --- | --- | --- |
| 320 | N=C(NCC1CC1)c1cccc(C2=CCN(S(=O)(=O)c3ccc(OC(F)(F)F)cc3)CC2)n1 [Compound 34, N-Cyclopropylmethyl-1′-(4-trifluoromethoxybenzenesulfonyl)-1′,2′,3′,6′-tetrahydro-[2,4′]bipyridinyl-6-carboxamidine] | – |
| 60 | O=C(NC1CC1)c1ccnc(C2=CCN(S(=O)(=O)c3cccc(C(F)(F)F)c3)CC2)n1 [Compound 39, 2-[1-(3-Trifluoromethylbenzenesulfonyl)-1,2,3,6-tetrahydropyridin-4-yl]pyrimidine-4-carboxylic acid cyclopropylamide] | – |
| 60 | O=C(NC1CC1)c1nc(C2=CCN(S(=O)(=O)c3cccc(C(F)(F)F)c3)CC2)ccc1Cl [Compound 44, 5-Chloro-1′-(3-trifluoromethylbenzenesulfonyl)-1′,2′,3′,6′-tetrahydro-[2,4′]bipyridinyl-6-carboxylic acid cyclopropylamide] | – |
| 320 | O=C(NC1CC1)c1coc(C2=CCN(S(=O)(=O)c3ccc(OC(F)(F)F)cc3)CC2)n1 [Compound 61, 2-[1-(4-Trifluoromethoxybenzenesulfonyl)-1,2,3,6-tetrahydropyridin-4-yl]oxazole-4-carboxylic acid cyclopropylamide] | – |
| 1050 | O=C(NC1CC1)c1cccc(C2=CCN(S(=O)(=O)Nc3cccc(C(F)(F)F)c3)CC2)n1 [Compound 86, 1′-[(3-Trifluoromethylbenzene)aminosulfonyl]-1′,2′,3′,6′-tetrahydro-[2,4′]bipyridinyl-6-carboxylic acid cyclopropylamide] | – |

Second part, the compound before the results:

| SMILES | IC50 [1] [nM] | IC50 [2] [nM] |
| --- | --- | --- |
| O=C(NC1CC1)c1cccc(C2=CCN(Cc3ccc(OC(F)(F)F)cc3)CC2)n1 [Compound 9, 1′-(4-Trifluoromethoxybenzyl)-1′,2′,3′,6′-tetrahydro-[2,4′]bipyridinyl-6-carboxylic acid cyclopropylamide] | 930 | > 20000 |
| O=C(NCC1CC1)c1cccc(C2=CCN(S(=O)(=O)c3cccc(C(F)(F)F)c3)CC2)n1 [Compound 27, 1′-(3-Trifluoromethylbenzenesulfonyl)-1′,2′,3′,6′-tetrahydro-[2,4′]bipyridinyl-6-carboxylic acid cyclopropylmethylamide] | 10 | – |
| NC(=O)c1cccc(C2=CCN(S(=O)(=O)c3cccc(C(F)(F)F)c3)CC2)n1 [Compound 28, 1′-(3-Trifluoromethylbenzenesulfonyl)-1′,2′,3′,6′-tetrahydro-[2,4′]bipyridinyl-6-carboxylic acid amide] | 590 | – |
| N#Cc1cccc(C2=CCN(S(=O)(=O)c3cccc(C(F)(F)F)c3)CC2)n1 [Compound 32, 1′-(3-Trifluoromethylbenzenesulfonyl)-1′,2′,3′,6′-tetrahydro-[2,4′]bipyridinyl-6-carbonitrile] | 1600 | – |
| O=C(NC1CC1)c1cccc(C2=CC(=O)N(S(=O)(=O)c3cccc(C(F)(F)F)c3)CC2)n1 [Compound 45, 6′-Oxo-1′-(3-trifluoromethylbenzenesulfonyl)-1′,2′,3′,6′-tetrahydro-[2,4′]bipyridinyl-6-carboxylic acid cyclopropylamide] | 20 | > 20000 |
| O=C(NC1CC1)c1cccc(C2=CC3CCC(C2)N3S(=O)(=O)c2cccc(C(F)(F)F)c2)n1 (centres unmarked) [Compound 55, 6-[8-(3-Trifluoromethylbenzenesulfonyl)-8-aza-bicyclo[3.2.1]oct-2-en-3-yl]pyridine-2-carboxylic acid cyclopropylamide] | 50 | – |
| O=C(NC1CC1)c1cccc(C2=CCN(C(c3ccc(OC(F)(F)F)cc3)C(F)(F)F)CC2)n1 (centres unmarked) [Compound 64, 1′-[2,2,2-Trifluoro-1-(4-trifluoromethoxyphenyl)ethyl]-1′,2′,3′,6′-tetrahydro-[2,4′]bipyridinyl-6-carboxylic acid cyclopropylamide] | 320 | – |
| O=C(NC1CC1)c1cccc(C2=CCN(C(CO)c3ccc(OC(F)(F)F)cc3)CC2)n1 (centres unmarked) [Compound 67, 1′-[2-Hydroxy-1-(4-trifluoromethoxyphenyl)ethyl]-1′,2′,3′,6-tetrahydro-[2,4′]bipyridinyl-6-carboxylic acid cyclopropylamide] | 1340 | – |
| O=C(NC1CC1)c1cccc(C2=CCN(Cc3cc(C(F)(F)F)no3)CC2)n1 [Compound 76, N-Cyclopropyl-6-{1-[(3-trifluoromethylisoxazol-5-yl)methyl]-1,2,3,6-tetrahydropyridin-4-yl}picolinamide hydrochloride] | 2760 | – |
| O=C(Nc1cccc(C2=CCN(S(=O)(=O)c3cccc(C(F)(F)F)c3)CC2)n1)C1CC1 [Compound 82, 1′-(3-Trifluoromethylbenzenesulfonyl)-1′,2′,3′,6′-tetrahydro[2,4′]bipyridinyl-6-cyclopropanoylamine] | 300 | – |
